PubChem BioAssay (NCI)
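Assay format: 96-well plates, 48-hour exposure. TGI: concentration producing complete growth inhibition.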

Tested on: EKVX NSCLC
Assay: inhibition of tumour cell growth, NCI panel, 48 h

Row | Compound | TGI [µM]
1 | CCOC(=O)C12OC(OCC)(CC1(OCC)OCC)C1(CC1)C2=O (configuration not stated) | > 100
2 | O=C(C(=O)n1ccc2ccccc21)n1ccc2ccccc21 | > 100
3 | COc1ccc(C(SCCO)(c2ccccc2)c2ccc(OC)cc2)cc1 | 29.7
4 | CC(N)/C(N)=N/O (configuration not stated) | > 100
5 | CCOC(=O)CCC(NC(=O)C(N)Cc1ccc(N(CCCl)CCCl)cc1)C(=O)OCC (configuration not stated) | 6.53
6 | CCN(CC)CCCNC(=O)c1cc(-c2nccn2C)nc2ccccc12 | > 100
7 | COc1ccccc1CC(=O)C(O)(C(F)(F)F)C(F)(F)F | > 100
8 | COc1ccc2oc3c(C)cc4c(OC)nnc(OC)c4c3c2c1 | > 100
9 | CC(C)=C[C@H]1C[C@H](C)[C@H]2CC[C@H](C)c3c2c1c(C)c1ncoc31 | 30
10 | CCOC(=O)c1ccc(-c2cc(C)no2)[nH]1 | > 100
11 | O=C1/C(=C\c2ccc(Cl)cc2Cl)Sc2scc(-c3ccc(O)c(O)c3)[n+]21 | 49

Tested on: SK-MEL-28 melanoma
Assay: inhibition of tumour cell growth, NCI panel, 48 h

Row | Compound | TGI [µM]
12 | CCCCCCc1cc2cc(-c3cn4ccsc4n3)c(=O)oc2cc1O | > 35.9
13 | N#CSC#CCCC#CSC#N | 82
14 | O=C(O)C1C2c3ccccc3C(c3ccccc32)C1C(=O)NCC1CC1 (configuration not stated) | > 100
15 | COC(=O)[C@]1(C)CCC[C@@]2(C)C1CC[C@@]13C=C(C(C)C)[C@@H](CC1=O)CC23 (some centres not stated) | > 100
16 | O=c1c(F)cn(Cc2c(Cl)cccc2Cl)c(=O)n1Cc1c(Cl)cccc1Cl | > 31.6
17 | CCNC(=O)c1ccc(C)c(N=NN(C)C)c1 | > 100
18 | C=CCNC(=S)N/C=C(\C#N)C(N)=O | > 100
19 | O=c1[nH]c(=O)n(C2COC(CO)C2O)cc1F (configuration not stated) | > 100
20 | O=[N+]([O-])c1ccc2nc(Nc3ccccc3)c(Nc3ccccc3)nc2c1 | 8.4
21 | COc1ccc(C2=CC(C(C)=C(C(N)=O)C(N)=O)C=C(c3ccc(Br)cc3)C2)c(OC)c1 (configuration not stated) | > 100
22 | CC(C)(CN1CCCCC1)C(/C=C/c1ccc(Cl)cc1)=N\NC(=O)N/N=C(/C=C/c1ccc(Cl)cc1)C(C)(C)CN1CCCCC1 | 25.3
23 | NC(Cc1ccccc1)C(=O)NC(Cc1ccccc1)NC(=O)C(Cc1c[nH]c2ccccc12)C(=O)O (configuration not stated) | > 100
24 | CC(=O)CC1CCC(=O)/C=C/C(=O)OC(CC(C)=O)CCC(=O)/C=C/C(=O)O1 (configuration not stated) | 20.5
25 | O=C1c2sc(-c3ccc(Cl)cc3)cc2-n2cccc21 | > 100
26 | CC(C)C(NC(=O)Oc1ccccc1)C(=O)NC1c2c(Br)sc(Br)c2C(=O)C1O (configuration not stated) | 8.67
27 | O=C1SC(SCc2ccccc2)=NC12CC2c1ccccc1 (configuration not stated) | 41.5
28 | O=C1NC2(CCN(CCc3ccccc3)CC2)Oc2ccccc21 | > 100
29 | Cc1ccc(S(=O)(=O)N2C3C=CC(C3)[C@@H]2C(Cl)(Cl)Cl)cc1 (some centres not stated) | 57.2
30 | COCOC1/C=C/CCCCC(=O)C(C)C#CC1 (configuration not stated) | 25.4

Row | Compound | TGI [µM]
31 | C[N+]12C=CC=C1C(N1CCCC1)c1scc(-c3ccc(Br)cc3)c12 (configuration not stated) | > 60.5
32 | C[C@]12c3c4cc(NC(=O)C(=O)NCc5ccc(-c6ccccn6)nc5)cc3Oc3cc(NC(=O)C(=O)NCc5ccc(-c6ccccn6)nc5)cc(c31)OC1C=C(NC(=O)C(=O)NCc3ccc(-c5ccccn5)nc3)C=C(O4)C12 (some centres not stated) | > 100
33 | COC(=O)c1cccc(C)c1C1CN=NC12Cc1cc(C)cc(C)c1C2=O (configuration not stated) | > 100
34 | O=C1c2ccccc2-n2nnnc2C2CSCN12 (configuration not stated) | > 100
35 | C/C(=N\NC(N)=S)c1ccc2c(c1)Sc1ccccc1O2 | 69.9
36 | O=c1[nH]c(=O)c2c3n(cc2[nH]1)CCCCC3 | > 100
37 | COc1ccc(C(C)NNC(=O)c2ccncc2)cc1OC (configuration not stated) | > 100
38 | CCOC(=O)C12OC(OCC)(CC1(OCC)OCC)C1(CC1)C2=O (configuration not stated) | > 100
39 | O=C(C(=O)n1ccc2ccccc21)n1ccc2ccccc21 | > 100
40 | COc1ccc(C(SCCO)(c2ccccc2)c2ccc(OC)cc2)cc1 | 34.1
41 | N#Cc1cccc(-n2[nH]c(=O)ccc2=O)c1 | > 100
42 | CC(N)/C(N)=N/O (configuration not stated) | > 100
43 | CCOC(=O)CCC(NC(=O)C(N)Cc1ccc(N(CCCl)CCCl)cc1)C(=O)OCC (configuration not stated) | 2.18
44 | COc1ccccc1CC(=O)C(O)(C(F)(F)F)C(F)(F)F | > 100
45 | COc1ccc2oc3c(C)cc4c(OC)nnc(OC)c4c3c2c1 | > 100
46 | CC(C)=C[C@H]1C[C@H](C)[C@H]2CC[C@H](C)c3c2c1c(C)c1ncoc31 | 37
47 | CCOC(=O)c1ccc(-c2cc(C)no2)[nH]1 | > 100
48 | O=C1/C(=C\c2ccc(Cl)cc2Cl)Sc2scc(-c3ccc(O)c(O)c3)[n+]21 | 31.7

Tested on: SF-268 CNS
Assay: inhibition of tumour cell growth, NCI panel, 48 h

Row | Compound | TGI [µM]
49 | CCCCCCc1cc2cc(-c3cn4ccsc4n3)c(=O)oc2cc1O | > 89.7
50 | N#CSC#CCCC#CSC#N | > 100
51 | O=C(O)C1C2c3ccccc3C(c3ccccc32)C1C(=O)NCC1CC1 (configuration not stated) | > 100
52 | COC(=O)[C@]1(C)CCC[C@@]2(C)C1CC[C@@]13C=C(C(C)C)[C@@H](CC1=O)CC23 (some centres not stated) | > 100
53 | O=c1c(F)cn(Cc2c(Cl)cccc2Cl)c(=O)n1Cc1c(Cl)cccc1Cl | > 31.6
54 | CCNC(=O)c1ccc(C)c(N=NN(C)C)c1 | > 100
55 | C=CCNC(=S)N/C=C(\C#N)C(N)=O | > 100
56 | O=c1[nH]c(=O)n(C2COC(CO)C2O)cc1F (configuration not stated) | > 100
57 | O=[N+]([O-])c1ccc2nc(Nc3ccccc3)c(Nc3ccccc3)nc2c1 | 7.91
58 | COc1ccc(C2=CC(C(C)=C(C(N)=O)C(N)=O)C=C(c3ccc(Br)cc3)C2)c(OC)c1 (configuration not stated) | > 100
59 | CC(C)(CN1CCCCC1)C(/C=C/c1ccc(Cl)cc1)=N\NC(=O)N/N=C(/C=C/c1ccc(Cl)cc1)C(C)(C)CN1CCCCC1 | 21.6
60 | NC(Cc1ccccc1)C(=O)NC(Cc1ccccc1)NC(=O)C(Cc1c[nH]c2ccccc12)C(=O)O (configuration not stated) | > 100
61 | CC(=O)CC1CCC(=O)/C=C/C(=O)OC(CC(C)=O)CCC(=O)/C=C/C(=O)O1 (configuration not stated) | 74
62 | O=C1c2sc(-c3ccc(Cl)cc3)cc2-n2cccc21 | > 100
63 | CC(C)C(NC(=O)Oc1ccccc1)C(=O)NC1c2c(Br)sc(Br)c2C(=O)C1O (configuration not stated) | 14.1
64 | O=C1SC(SCc2ccccc2)=NC12CC2c1ccccc1 (configuration not stated) | 70.1
65 | O=C1NC2(CCN(CCc3ccccc3)CC2)Oc2ccccc21 | > 100
66 | Nc1ncc2c(n1)-c1ccccc1OC2N1CCCCC1 (configuration not stated) | > 100
67 | Cc1ccc(S(=O)(=O)N2C3C=CC(C3)[C@@H]2C(Cl)(Cl)Cl)cc1 (some centres not stated) | 46.9
68 | COCOC1/C=C/CCCCC(=O)C(C)C#CC1 (configuration not stated) | 35.1

Row | Compound | TGI [µM]
69 | C[N+]12C=CC=C1C(N1CCCC1)c1scc(-c3ccc(Br)cc3)c12 (configuration not stated) | 37
70 | C[C@]12c3c4cc(NC(=O)C(=O)NCc5ccc(-c6ccccn6)nc5)cc3Oc3cc(NC(=O)C(=O)NCc5ccc(-c6ccccn6)nc5)cc(c31)OC1C=C(NC(=O)C(=O)NCc3ccc(-c5ccccn5)nc3)C=C(O4)C12 (some centres not stated) | > 100
71 | COC(=O)c1cccc(C)c1C1CN=NC12Cc1cc(C)cc(C)c1C2=O (configuration not stated) | > 100
72 | O=C1c2ccccc2-n2nnnc2C2CSCN12 (configuration not stated) | > 100
73 | C/C(=N\NC(N)=S)c1ccc2c(c1)Sc1ccccc1O2 | 8.36
74 | O=c1[nH]c(=O)c2c3n(cc2[nH]1)CCCCC3 | > 100
75 | COc1ccc(C(C)NNC(=O)c2ccncc2)cc1OC (configuration not stated) | > 100
76 | CCOC(=O)C12OC(OCC)(CC1(OCC)OCC)C1(CC1)C2=O (configuration not stated) | > 100
77 | O=C(C(=O)n1ccc2ccccc21)n1ccc2ccccc21 | > 100
78 | COc1ccc(C(SCCO)(c2ccccc2)c2ccc(OC)cc2)cc1 | 26.8
79 | N#Cc1cccc(-n2[nH]c(=O)ccc2=O)c1 | > 100
80 | CC(N)/C(N)=N/O (configuration not stated) | > 100
81 | CCOC(=O)CCC(NC(=O)C(N)Cc1ccc(N(CCCl)CCCl)cc1)C(=O)OCC (configuration not stated) | 4
82 | CCN(CC)CCCNC(=O)c1cc(-c2nccn2C)nc2ccccc12 | > 100
83 | COc1ccccc1CC(=O)C(O)(C(F)(F)F)C(F)(F)F | > 100
84 | COc1ccc2oc3c(C)cc4c(OC)nnc(OC)c4c3c2c1 | > 100
85 | CC(C)=C[C@H]1C[C@H](C)[C@H]2CC[C@H](C)c3c2c1c(C)c1ncoc31 | 46
86 | CCOC(=O)c1ccc(-c2cc(C)no2)[nH]1 | > 100
87 | O=C1/C(=C\c2ccc(Cl)cc2Cl)Sc2scc(-c3ccc(O)c(O)c3)[n+]21 | > 100

Tested on: U251 CNS
Assay: inhibition of tumour cell growth, NCI panel, 48 h

Row | Compound | TGI [µM]
88 | CCCCCCc1cc2cc(-c3cn4ccsc4n3)c(=O)oc2cc1O | > 100
89 | N#CSC#CCCC#CSC#N | 30.5
90 | O=C(O)C1C2c3ccccc3C(c3ccccc32)C1C(=O)NCC1CC1 (configuration not stated) | > 100
91 | COC(=O)[C@]1(C)CCC[C@@]2(C)C1CC[C@@]13C=C(C(C)C)[C@@H](CC1=O)CC23 (some centres not stated) | 39.2
92 | O=c1c(F)cn(Cc2c(Cl)cccc2Cl)c(=O)n1Cc1c(Cl)cccc1Cl | > 31.6
93 | CCNC(=O)c1ccc(C)c(N=NN(C)C)c1 | > 100
94 | C=CCNC(=S)N/C=C(\C#N)C(N)=O | > 100
95 | O=c1[nH]c(=O)n(C2COC(CO)C2O)cc1F (configuration not stated) | > 100
96 | O=[N+]([O-])c1ccc2nc(Nc3ccccc3)c(Nc3ccccc3)nc2c1 | 1.99
97 | COc1ccc(C2=CC(C(C)=C(C(N)=O)C(N)=O)C=C(c3ccc(Br)cc3)C2)c(OC)c1 (configuration not stated) | > 100
98 | CC(C)(CN1CCCCC1)C(/C=C/c1ccc(Cl)cc1)=N\NC(=O)N/N=C(/C=C/c1ccc(Cl)cc1)C(C)(C)CN1CCCCC1 | 12.6
99 | NC(Cc1ccccc1)C(=O)NC(Cc1ccccc1)NC(=O)C(Cc1c[nH]c2ccccc12)C(=O)O (configuration not stated) | > 100
100 | CC(=O)CC1CCC(=O)/C=C/C(=O)OC(CC(C)=O)CCC(=O)/C=C/C(=O)O1 (configuration not stated) | 42.8
101 | O=C1c2sc(-c3ccc(Cl)cc3)cc2-n2cccc21 | > 100
102 | CC(C)C(NC(=O)Oc1ccccc1)C(=O)NC1c2c(Br)sc(Br)c2C(=O)C1O (configuration not stated) | 9.53
103 | O=C1SC(SCc2ccccc2)=NC12CC2c1ccccc1 (configuration not stated) | 39
104 | O=C1NC2(CCN(CCc3ccccc3)CC2)Oc2ccccc21 | > 100
105 | Nc1ncc2c(n1)-c1ccccc1OC2N1CCCCC1 (configuration not stated) | > 100
106 | Cc1ccc(S(=O)(=O)N2C3C=CC(C3)[C@@H]2C(Cl)(Cl)Cl)cc1 (some centres not stated) | 40.1
107 | COCOC1/C=C/CCCCC(=O)C(C)C#CC1 (configuration not stated) | 28
